In US4205076A, “Lipogenesis inhibition by certain esters of substituted benzodioxincarboxylic acids” (Shell Oil Company, priority 1979, dated 1980):

These molecules were tested on swine adipose tissue (assay: Inhibition of lipogenesis (incorporation of radioactive carbon from glucose-U-14C into lipid) in swine adipose tissue slices). Details: 100 micrograms per milliliter, 37° C., 2 hours, insulin, 5% DMSO, in triplicate.
Format: cell-based
Text: The manner in which they cause this effect is not known with certainty; it is believed that they interfere with the synthesis of fatty acids in the tissues. Their effectiveness for this purpose has been ascertained by immersing samples of swine adipose tissue in a liquid medium containing radioactive glucose and the test chemical for a period of time, then isolating the lipid from the treated tissue and determining the incorporation of the radioactive carbon into lipid by means of scintillation counting techniques. These tests were conducted in swine adipose tissues because in swine, the primary site of lipogenesis--i.e., fatty acid synthesis--appears to be adipose tissue.
Described in more detail, tests were conducted according to the following general procedure:
150 milligrams of slices of swine adipose tissue were incubated at 37° C. for 2 hours with shaking in 3 milliliters of Krebs-Ringer bicarbonate solution containing one-half the normal calcium ion concentration, 60 micromoles of glucose, 0.5 micro-Curie of glucose-U^14 C, and 300 microunits of insulin, and 5% dimethyl sulfoxide (DMSO). The test compounds were added as a solution or suspension in DMSO and were present at a concentration of 100 micrograms per milliliter of the incubation mixture.
The incubation was terminated by addition of 0.25 milliliter of 1 N sulfuric acid. The resulting mixture was extracted with a total of 25 milliliters of chloroform/methanol (2:1 v/v). The extracts were washed according to Folch et al. (J. Biol. Chem. 226, 497-509, (1957)), air dried, and counted in a liquid scintillation counter with 15 milliliters of counting fluid (two parts toluene containing 0.4% w/v New England Nuclear Omnifluor/1 part Triton X-100). The tests were conducted in triplicate and were accompanied by control tests in which all ingredients,proportions and conditions were the same except that no test compound was included. From the data obtained were calculated the percent inhibition of lipid synthesis by the test compounds in each case. The data obtained from the tests are set out in Table 1, as the percent inhibition of lipogenesis compared to the results obtained in the control tests wherein only the test compound was omitted.

| Molecule | Percent Inhibition (of lipogenesis compared to control) |
| --- | --- |
| CCOC(=O)C1COc2ccc(C(=O)c3ccccc3)cc2O1 (stereo not drawn) [Compound 5, Ethyl 7-benzoyl-2,3-dihydro-1,4-benzodioxin-2-carboxylate] | 69% |
| Ethyl 6(and 7)-(2'-methyl-4'-thiazolyl)-2,3-dihydro-1,4-benzodioxin-2-carboxylate [Compound 6] | 79% |
| CCOC(=O)C1COc2ccc(C(C)=NOC)cc2O1 (stereo not drawn) [Compound 3, Ethyl 2,3-dihydro-7-(1-(methoxyimino)ethyl)-1,4-benzodioxin-2-carboxylate] | 52% |
| Ethyl 7(and 6)-acetyl-2,3-dihydro-1,4-benzodioxin-2-carboxylate [Compound 1] | 89% |
| Ethyl 6(and 7)-(acetylamino)-2,3-dihydro-1,4-benzodioxin-2-carboxylate [Compound 4] | 96% |
| Ethyl 2,3-dihydro-7(and 6)-(1-(hydroxyimino)ethyl)-1,4-benzodioxin-2-carboxylate [Compound 2] | 94% |
